What was measured:
[1] = biological target: T1, type V phosphodiesterase (Homo sapiens, UniProt O76074); assay: Phosphodiesterase inhibition activity (in vitro), Type V; format: biochemical, human (peripheral blood of a healthy person); settings: 1 μM cGMP
T1 construct: from tissue; host or cells: human peripheral blood granulocyte fraction, soluble, Q Sepharose
Text: (§1) (A) In order to evaluate selectivity of the compounds of the present invention for type IV phosphodiesterase, types I, II, III and V phosphodiesterase isozymes were purified in the following manner.
(§2) 2) Solutions containing various phosphodiesterase isozymes were obtained from the thus obtained soluble fraction in the following manner. The thus, obtained soluble fraction was applied to a column of 1.6×10.0 cm packed with Q Sepharose which had been equilibrated with buffer A. Next, said column was washed with 300 ml of buffer A to remove non-absorbed protein. Phosphodiesterase was eluted with 200 ml of buffer A having 0.05 to 1.25M linear gradient of sodium acetate to collect about 40 fractions each containing 5.0 ml eluate. Each fraction was checked for cAMP- and cGMP-metabolizing phosphodiesterase activities. Of these fractions, a fraction having only cAMP-metabolizing activity and showing disappearance of the metabolizing activity by 0.1 μM cilostamide (a type III phosphodiesterase selective inhibitor) was used as the type III phosphodiesterase. […] These fractions were separately collected to be used as phosphodiesterase (types I, II and III) stock solutions for the examination of selectivity. p1 3) A solution containing type V phosphodiesterase was prepared from peripheral blood of a healthy person in the following manner. A 200 ml portion of physiological saline supplemented with dextran (3%) was added to 500 ml of heparinized peripheral blood and incubated at 37° C. for 40 minutes to effect precipitation of erythrocytes. The supernatant fluid after precipitation of erythrocytes was recovered and centrifuged once, and the resulting precipitate was suspended in buffer B (140 mM NaCl, 5 mM KCl, 5 mm glucose and 10 mM HEPES, pH 7.4), overlaid on a solution for density gradient centrifugation use (Ficoll solution) and then centrifuged at room temperature for 40 minutes at 450×g, thereby separating monocyte fraction and granulocyte fraction. The granulocyte fraction was washed once with buffer C (140 mM NaCl, 5 mM KCl, 1 mM CaCl2, 1 mM MgCl2, 5 mM glucose and 10 mM HEPES, pH 7.4) and suspended in buffer D (20 mM Bis-Tris, 5 mM dithioerythritol, 2 mM EGTA and 50 mM sodium acetate, pH 6.5) containing a protease inhibitor (40 μM leupeptin, 5 μM pepstatin A, 20 μM aprotinin, 50 μM phenyl-methyl-sulfonyl-fluoride or 2 mM benzamidine) and then the cells were disrupted using polytron and sonicator and subjected to ultracentrifugation (4° C., 100,000×g, 60 minutes) to give a soluble fraction.
4) The thus obtained soluble fraction was applied to a column of 1.6×10 cm packed with Q Sepharose which had been equilibrated with buffer D. Next, the column was washed with 120 ml of buffer D to remove non-absorbed protein. Phosphodiesterase was eluted with 300 ml of buffer D having 0.05 to 1.25M linear gradient of sodium acetate to collect fractions each containing 5.0 ml eluate. Each fraction was checked for cAMP- and cGMP-metabolizing phosphodiesterase activities. Fractions having only cGMP metabolizing activity were collected to be used as the type V phosphodiesterase stock solution.
(§3) (B) Inhibitory activities were measured using the thus obtained stock solutions of various phosphodiesterase isozymes.
1) A predetermined amount of each compound to be tested was subjected to 10 minutes of reaction at 30° C. in a reaction mixture containing 40 mM Tris-HCl (pH 8.0), 5 mM MgCl2, 4 mM 2-mercaptoethanol, 10 μM rolipram (a type IV phosphodiesterase selective inhibitor), 1 μM cAMP, 10 nM ^3 H-cAMP (in the case of type V phosphodiesterase, 1 μM cAMP and 10 nM ^3 H-cAMP are replaced by 1 μM cGMP and 100 nM ^3 H-cGMP) and each of the isozyme stock solutions. After completion of the reaction, the reaction mixture was boiled at 90° C. for 1 minute, ice-cooled, mixed with 1 unit of 5'-nucleotidase and then subjected to 10 minutes of reaction at 30° C., and the reaction was stopped by adding 1 ml of methanol. […]

[2] = biological target: T2, type II phosphodiesterase (Rattus norvegicus, UniProt Q01062); assay: Phosphodiesterase inhibition activity (in vitro), Type II; format: biochemical; settings: Type II phosphodiesterase column
T2 construct: purified from rat heart muscle cells; from tissue; host or cells: rat heart, soluble fraction, Q Sepharose
T2 sequence (Q01062 1-928): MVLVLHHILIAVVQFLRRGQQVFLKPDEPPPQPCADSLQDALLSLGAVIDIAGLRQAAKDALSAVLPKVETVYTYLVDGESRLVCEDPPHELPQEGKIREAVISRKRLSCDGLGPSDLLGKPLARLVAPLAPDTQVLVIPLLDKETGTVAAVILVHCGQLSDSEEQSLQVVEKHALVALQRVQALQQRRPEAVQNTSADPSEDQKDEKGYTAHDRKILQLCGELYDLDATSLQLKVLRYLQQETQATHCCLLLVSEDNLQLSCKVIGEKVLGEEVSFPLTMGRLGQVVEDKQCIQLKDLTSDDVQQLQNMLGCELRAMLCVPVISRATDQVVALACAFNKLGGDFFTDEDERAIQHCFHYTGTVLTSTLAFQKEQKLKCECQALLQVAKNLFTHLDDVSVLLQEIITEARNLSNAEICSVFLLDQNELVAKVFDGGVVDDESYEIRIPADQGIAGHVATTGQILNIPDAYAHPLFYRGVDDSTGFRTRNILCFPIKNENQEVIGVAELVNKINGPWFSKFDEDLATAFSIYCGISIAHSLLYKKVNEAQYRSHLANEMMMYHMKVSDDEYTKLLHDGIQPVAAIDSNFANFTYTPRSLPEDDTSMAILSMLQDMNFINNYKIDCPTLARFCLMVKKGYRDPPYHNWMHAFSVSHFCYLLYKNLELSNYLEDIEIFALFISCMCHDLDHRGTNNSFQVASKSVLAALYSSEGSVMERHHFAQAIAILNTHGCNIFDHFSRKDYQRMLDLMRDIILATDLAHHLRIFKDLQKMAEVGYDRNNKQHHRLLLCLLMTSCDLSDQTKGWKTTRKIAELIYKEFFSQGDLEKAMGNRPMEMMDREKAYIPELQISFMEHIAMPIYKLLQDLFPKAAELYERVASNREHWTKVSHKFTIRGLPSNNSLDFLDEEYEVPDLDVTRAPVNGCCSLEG
Text: as §1
1) Solutions containing various phosphodiesterase (types I, II and III) isozymes were purified from rat heart muscle cells in the following manner. Under ether anesthesia, Wistar rat was subjected to thoracotomy to excise the heart. After removing blood by perfusion with physiological saline supplemented with heparin (1 unit/ml), the heart was finely chopped with scissors. This was suspended in buffer A (20 mM Bis-Tris, 5 mM dithioerythritol, 2 mM EGTA and 50 mM sodium acetate, pH 6.5) containing a protease inhibitor (50 μM phenyl-methyl-sulfonyl-fluoride, 5 μM pepstatin A, 40 μM leupeptin, 20 μM aprotinin or 2 mM benzamidine) and then the cells were disrupted using polytron and sonicator and subjected to ultracentrifugation (4° C., 100,000×g, 60 minutes) to give a soluble fraction.
as §2, §3
1) A predetermined amount of each compound to be tested was subjected to 10 minutes of reaction at 30° C. in a reaction mixture containing 40 mM Tris-HCl (pH 8.0), 5 mM MgCl2, 4 mM 2-mercaptoethanol, 10 μM rolipram (a type IV phosphodiesterase selective inhibitor), 1 μM cAMP, 10 nM ^3 H-cAMP (in the case of type V phosphodiesterase, 1 μM cAMP and 10 nM ^3 H-cAMP are replaced by 1 μM cGMP and 100 nM ^3 H-cGMP) and each of the isozyme stock solutions. […]

IC50 [1]: 1050 nM | IC50 [2]: > 3000 nM
Compound: CCc1cc(C)c2c(-c3cccc(Cl)c3)cc(=O)n(CC)c2n1 [Example 39, 4-(3-Chlorophenyl)-1,7-diethyl-5-methyl-1,8-naphthyridin-2(1H)-one]
